Columns and labels:
[1] = test system: HBV replication in HepAD38 cells; assay: Anti-HBV replication assay in HepAD38 cells (QPCR of extracellular HBV DNA); type: cell-based, HBV (genotype D, serotype ayw); conditions: Hepatitis B virus, 168 h, 7 days incubation, extracellular HBV DNA by QPCR, read-out: Anti-HBV EC50
How it was run: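 Steps: seed HepAD38 overnight without tetracycline; refresh medium and add 1 log10 serial dilutions ([…]); incubate 7 days at 37 °C; quantify supernatant HBV DNA by QPCR; derive EC50 from a 4-parameter dose-response fit.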

[2] = In vitro cytotoxicity assay (MTT cell viability) in HepG2 cells; type: cell-based, human; conditions: human
How it was run: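 CC50 values reflect loss of HepG2 viability after a 7-day exposure at 37 °C, 5% CO2. After 3-4 h with MTT, solubilized formazan was quantified at 492 nm relative to vehicle wells.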

| Structure (SMILES) | EC50 [1] [nM] | CC50 at 7 days [2] [nM] |
| --- | --- | --- |
| Cc1cc(NC(=O)c2c(C)c(C(=O)C(=O)NC34CC5CC(CC(C5)C3)C4)n(C)c2C)ccc1F [Example 14, 5-(2-(((3s,5s,7s)-adamantan-1-yl)amino)-2-oxoacetyl)-N-(4-fluoro-3-methylphenyl)-1,2,4-trimethyl-1H-pyrrole-3-carboxamide] | < 50 | 5000 to 30000 |
| Cc1cc(NC(=O)c2c(C)c(C(=O)C(=O)NC3(CO)CCCCC3)n(C)c2C)ccc1F [Example 599, N-(4-fluoro-3-methylphenyl)-5-(2-((1-(hydroxymethyl)cyclohexyl)amino)-2-oxoacetyl)-1,2,4-trimethyl-1H-pyrrole-3-carboxamide] | < 50 | > 30000 |
| Cc1noc([C@@H](C)NC(=O)C(=O)c2c(C)c(C(=O)Nc3cnc(F)c(C)c3)c3n2CCCC3)n1 [Example 472, (R)-N-(6-fluoro-5-methylpyridin-3-yl)-2-methyl-3-(2-((1-(3-methyl-1,2,4-oxadiazol-5-yl)ethyl)amino)-2-oxoacetyl)-5,6,7,8-tetrahydroindolizine-1-carboxamide] | > 1000 | > 30000 |
| Cc1cc(NC(=O)c2c(C)c(C(=O)C(=O)NC(C)c3nn[nH]n3)n(C)c2C)ccc1F (stereo not shown) [Example 79, 5-(2-((1-(2H-tetrazol-5-yl)ethyl)amino)-2-oxoacetyl)-N-(4-fluoro-3-methylphenyl)-1,2,4-trimethyl-1H-pyrrole-3-carboxamide] | 50 to 499 | > 30000 |
| CNC(=O)[C@@H](NC(=O)C(=O)c1c(C)c(C(=O)Nc2ccc(F)c(C)c2)c(C)n1C)C1CCCC1 [Example 125, (S)-5-(2-((1-cyclopentyl-2-(methylamino)-2-oxoethyl)amino)-2-oxoacetyl)-N-(4-fluoro-3-methylphenyl)-1,2,4-trimethyl-1H-pyrrole-3-carboxamide] | < 50 | 500 to 4990 |
| Cc1cc(NC(=O)c2c(C)c(C(=O)C(=O)NCC3(O)CCOCC3)n(C)c2C)ccc1F [Example 150, N-(4-fluoro-3-methylphenyl)-5-(2-(((4-hydroxytetrahydro-2H-pyran-4-yl)methyl)amino)-2-oxoacetyl)-1,2,4-trimethyl-1H-pyrrole-3-carboxamide] | < 50 | > 30000 |
| COC(=O)[C@@H](NC(=O)C(=O)c1c(C)c(C(=O)Nc2ccc(F)c(C)c2)c(C)n1C)[C@H](C)O [Example 45, methyl (2-(4-((4-fluoro-3-methylphenyl)carbamoyl)-1,3,5-trimethyl-1H-pyrrol-2-yl)-2-oxoacetyl)-L-allothreoninate] | 500 to 1000 | > 30000 |
| Cc1cc(NC(=O)c2c(C)c(C(=O)C(=O)NC3(C)CC(F)(F)C3)n(C)c2C)cnc1F [Example 206, 5-(2-((3,3-difluoro-1-methylcyclobutyl)amino)-2-oxoacetyl)-N-(6-fluoro-5-methylpyridin-3-yl)-1,2,4-trimethyl-1H-pyrrole-3-c carboxamide] | < 50 | > 30000 |
| Cc1noc([C@@H](C)NC(=O)C(=O)c2c(Cl)c(C(=O)Nc3ccnc(F)c3)c3n2CCCC3)n1 [Example 510, (R)-2-chloro-N-(2-fluoropyridin-4-yl)-3-(2-((1-(3-methyl-1,2,4-oxadiazol-5-yl)ethyl)amino)-2-oxoacetyl)-5,6,7,8-tetrahydroindolizine-1-carboxamide] | > 1000 | > 30000 |
| CNC(=O)[C@@H](NC(=O)C(=O)c1c(C)c(C(=O)Nc2ccc(F)c(C)c2)c(C)n1C)[C@H](C)O [Example 58, N-(4-fluoro-3-methylphenyl)-5-(2-(((2S,3S)-3-hydorxy-1-(methylamino)-1-oxobutan-2-yl)amino)-2-oxoacetyl)-1,2,4-trimethyl-1H-pyrrole-3-carboxamide] | 500 to 1000 | > 30000 |
| Cc1c(C(=O)Nc2ccc(F)c(F)c2)c(C)n(C)c1C(=O)C(=O)NC(C)(C)CO [Example 148, N-(3,4-difluorophenyl)-5-(2-((1-hydroxy-2-methylpropan-2-yl)amino)-2-oxoacetyl)-1,2,4-trimethyl-1H-pyrrole-3-carboxamide] | < 50 | > 30000 |
